Results as given in ChEMBL document CHEMBL3804819, “2-(Quinolin-4-yloxy)acetamides Are Active against Drug-Susceptible and Drug-Resistant Mycobacterium tuberculosis Strains” (ACS Med Chem Lett, 2016).
Values after ≈ are worked out from the molar mass of the structure shown.

What was measured:
Format in all cases: functional
[1] = tested on: Mycobacterium tuberculosis; test: Antibacterial activity against isoniazid-resistant Mycobacterium tuberculosis RS-032 clinical isolate harboring katG S315T mutant assessed as reduction in bacterial growth after 7 days by resazurin assay
[2] = tested on: Mycobacterium tuberculosis; test: Antibacterial activity against isoniazid-resistant Mycobacterium tuberculosis RS-036 clinical isolate harboring inhA C(-15)T mutant assessed as reduction in bacterial growth after 7 days by resazurin assay
[3] = tested on: Mycobacterium tuberculosis; test: Selectivity ratio of MIC for isoniazid-resistant Mycobacterium tuberculosis RS-032 clinical isolate harboring katG S315T mutant to MIC for Mycobacterium tuberculosis H37Rv
[4] = tested on: Mycobacterium tuberculosis; test: Antibacterial activity against multidrug-resistant Mycobacterium tuberculosis PE-003 clinical isolate harboring inhA C(-15)T mutant assessed as reduction in bacterial growth after 7 days by resazurin assay

Compound	MIC [1] [µM]	MIC [2] [µM]	Selectivity ratio [3]	MIC [4] [µM]
COc1ccc(NC(=O)COc2cc(C)nc3ccc(OC)cc23)cc1	0.88 (≈ 0.31 µg/mL)	0.44 (≈ 0.155 µg/mL)	2	0.06 (≈ 0.0211 µg/mL)
COc1ccc2nc(C)cc(OCC(=O)Nc3ccccc3)c2c1	1.93 (≈ 0.622 µg/mL)	0.48 (≈ 0.155 µg/mL)	2	0.24 (≈ 0.0774 µg/mL)
COc1ccc2nc(C)cc(OCC(=O)Nc3ccc(Cl)cc3)c2c1	0.87 (≈ 0.31 µg/mL)	0.44 (≈ 0.157 µg/mL)	2	0.06 (≈ 0.0214 µg/mL)
COc1ccc2nc(C)cc(OCC(=O)Nc3ccc(C(F)(F)F)cc3)c2c1	1.6 (≈ 0.625 µg/mL)	0.8 (≈ 0.312 µg/mL)	–	0.1 (≈ 0.039 µg/mL)
COc1ccc2nc(C)cc(OCC(=O)Nc3ccccc3OC)c2c1	0.88 (≈ 0.31 µg/mL)	0.44 (≈ 0.155 µg/mL)	2	0.06 (≈ 0.0211 µg/mL)
NNC(=O)c1ccncc1 [ISONIAZID]	>70	>70	–	>70
COc1ccc(NC(=O)COc2cc(C)nc3ccc(OC)cc23)c(OC)c1	0.81 (≈ 0.31 µg/mL)	0.41 (≈ 0.157 µg/mL)	2	0.2 (≈ 0.0765 µg/mL)
COc1ccc2nc(C)cc(OCC(=O)NCc3ccccc3)c2c1	3.71 (≈ 1.25 µg/mL)	1.85 (≈ 0.622 µg/mL)	2	0.46 (≈ 0.155 µg/mL)
COc1ccc2nc(C)cc(OCC(=O)Nc3ccccc3Cl)c2c1	1.75 (≈ 0.624 µg/mL)	0.44 (≈ 0.157 µg/mL)	–	0.11 (≈ 0.0392 µg/mL)
COc1ccc2nc(C)cc(OCC(=O)Nc3ccc4c(c3)OCO4)c2c1	3.41 (≈ 1.25 µg/mL)	0.85 (≈ 0.311 µg/mL)	2	0.21 (≈ 0.0769 µg/mL)
COc1ccc2nc(C)cc(OCC(=O)Nc3cccc(Cl)c3)c2c1	3.5 (≈ 1.25 µg/mL)	0.87 (≈ 0.31 µg/mL)	–	0.22 (≈ 0.0785 µg/mL)
COc1ccc2nc(C)cc(OCC(=O)Nc3ccc(Br)cc3)c2c1	0.78 (≈ 0.313 µg/mL)	0.39 (≈ 0.156 µg/mL)	2	0.05 (≈ 0.0201 µg/mL)
COc1ccc2nc(C)cc(OCC(=O)Nc3ccc4ccccc4c3)c2c1	0.84 (≈ 0.313 µg/mL)	0.1 (≈ 0.0372 µg/mL)	2	0.05 (≈ 0.0186 µg/mL)
COc1cccc(NC(=O)COc2cc(C)nc3ccc(OC)cc23)c1	7.08 (≈ 2.49 µg/mL)	1.77 (≈ 0.624 µg/mL)	2	0.44 (≈ 0.155 µg/mL)
COc1ccc2nc(C)cc(OCC(=O)Nc3ccccc3C)c2c1	0.93 (≈ 0.313 µg/mL)	0.46 (≈ 0.155 µg/mL)	2	0.11 (≈ 0.037 µg/mL)
